Reference: patent EP0585371B1, “AROMATIC OLIGOMERIC COMPOUNDS USEFUL AS MIMICS OF BIOACTIVE MACROMOLECULES” (RHONE-POULENC RORER INTERNATIONAL (HOLDINGS) INC., priority 1991, dated 1992)

Key:
normal pooled plasma = experiment: Anticoagulation activity, Activated Partial Thromboplastin Time (APTT) test; conditions: concentration required to double clotting time
Experimental: The following test measures anticoagulant activity of the oligomers of the present invention and utilizes the Activated Partial Thromboplastin Time (APTT) test, with the following procedures.
To an assay cuvette is added 100 µl of normal pooled plasma (George King Biomedical Inc., Kansas) and […] of a solution containing the test compound in aqueous 50 mM Tris hydrochloride at pH 7.5 (0.2 mg of sample in one ml buffer). The sample is placed in a MLA coagulation timer which automatically maintains the sample at 37°C for 2.5 minutes, 100 µl of actin activated cephaloplastin reagent is injected, kept 5 minutes, 100 µl of 35 mM CaCI is injected, and clot formation is determined photometrically and the clotting time recorded. Each example is examined at a variety of concentrations, generally from about .025 mg/ml to about 1 mg/ml, and the clotting times are graphed as a function of concentration. From the graphic results, the concentration required to double clotting time (ICDCT) is calculated by linear interpolation.

vWF Binding to Gp1b = biological target: T1, vWF Binding to Gp1b (Homo sapiens, UniProt P04275+P07359); experiment: Inhibition of ristocetin-induced binding of 125I-vWF to formalin-fixed platelets; conditions: ristocetin 1.0 mg/ml; for Ristocetin-Induced Inhibition of vWF Binding to Gp1b: at 100 µg/ml
T1 construct: multimeric vWF (isolated from human plasma cryoprecipitate); Formalin-fixed platelets, prepared according to the method of MacFarlane; from tissue; host or cells: vWF from human plasma cryoprecipitate; GPIb on formalin-fixed platelets
Experimental: The binding of vWf (vonWillebrand Factor) to glycoprotein Ib is measured in one of two experimental systems, in the presence of either ristocetin or botrocetin as modulators of binding. The ristocetin modulated binding is described herein.
Formalin-fixed platelets, prepared according to the method of MacFarlane, D. et al., Thromb. Diath. Haemorrh. 34, 306-308 (1975), were preincubated at room temperature for 15 minutes with specified dilutions of oligomers according to the present invention. Ristocetin, (Sigma, St. Louis, MO) diluted to a final concentration of 1.0 mg/ml, and ^125I-labelled multimeric vWF (isolated from human plasma cryoprecipitate according to the method of Fulcher, C.A. et al. Proc. Natl. Acad. Sci. USA, 79, 1648-1652 (1982), and labelled according to the method of Fraker, P.J. et al. Biochem. Biophys. Res. Commun., 80, 849-857 (1978)) were then added to the incubation mixture, and the amount of ^125I- vWF bound to the platelets was determined. ^125I-vWF binding to the platelets was referenced against 100% binding which was defined as the amount of ^125I- vWF bound in the absence of added oligomer compound. The method for measuring vWF binding is reported in detail in Ruggeri et al., J. Clin. Invest., 72, 1-12, (1983), herein incorporated by reference.

[1] = biological target: T2, ESb mouse lymphoma heparanase (Mus musculus, UniProt Q6YGZ1); experiment: Inhibition of heparanase activity (degradation of labeled ECM heparan sulfate); format: biochemical; conditions: 24 hours incubation with labeled ECM
T2 construct: endogenous in cells; host or cells: ESb mouse lymphoma cells
T2 sequence (Q6YGZ1 28-535): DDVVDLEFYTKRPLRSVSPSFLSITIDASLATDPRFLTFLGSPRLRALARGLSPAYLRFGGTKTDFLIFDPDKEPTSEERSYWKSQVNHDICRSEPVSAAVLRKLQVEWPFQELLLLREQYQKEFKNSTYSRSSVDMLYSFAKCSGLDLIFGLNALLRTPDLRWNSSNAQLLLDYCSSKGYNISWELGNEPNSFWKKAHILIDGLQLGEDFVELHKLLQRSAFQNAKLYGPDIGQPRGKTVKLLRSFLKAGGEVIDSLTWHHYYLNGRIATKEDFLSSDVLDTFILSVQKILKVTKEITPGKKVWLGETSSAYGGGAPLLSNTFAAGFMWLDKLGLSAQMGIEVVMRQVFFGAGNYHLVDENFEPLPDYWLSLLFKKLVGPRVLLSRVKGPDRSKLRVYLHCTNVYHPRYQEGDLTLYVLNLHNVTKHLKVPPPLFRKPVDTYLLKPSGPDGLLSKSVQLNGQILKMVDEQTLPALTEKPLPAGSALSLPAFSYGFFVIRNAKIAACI
Experimental: Heparanase is an endoglucuronidase capable of degrading […] (HS) at specific intrachain sites.
The ability of compounds of the present invention to inhibit lymphomacell derived heparanase is tested in the assay system described by Vlodavsky et al., Cancer Research 43, 2704-2711 (1983). […] labeled ECM is incubated for 24 hours with ESb mouse lymphoma heparanase in the presence of various concentrations of the oligomers tested. Degradation of the HS is followed by gel filtration of the supematants. Heparanase activity is expressed as the total amount of labeled low-molecular-weight fragments released from the EMC substrate.

[2] = system: human fixed thrombin activated platelets; experiment: Platelet aggregation inhibition (fibrinogen-induced); format: cell-based; conditions: human fibrinogen added
Experimental: The method for measuring platelet aggregation inhibition is essentially that of Ruggeri, et al., Proc. Natl. Acad. Sci. USA, 83, 5708-5712 (1986), using formalin-fixed platelets as prepared by Plow, et al., Proc. Natl. Acad. Sci. USA, 79, 3711-3715 (1982). A given amount of the compound of the present invention or other compound to be tested (10 to 100 µl of a 1 mg/ml solution) is incubated at 37°C with 400 µl of human fixed thrombin activated platelets for 2 minutes. 12.5 µl of human fibrinogen solution is added and aggregation is monitored using a platelet aggregation profiler (Model PAP-4). Controls consist of fibrinogen added to incubated platelets and the resulting aggregation is considered as 100%. Percent inhibition in the presence of a given concentration of test compound versus concentration of the compound is plotted and the concentration required to give 50% inhibition (IC50) is determined.

T1 sequence (P04275 764-2813 limits assumed): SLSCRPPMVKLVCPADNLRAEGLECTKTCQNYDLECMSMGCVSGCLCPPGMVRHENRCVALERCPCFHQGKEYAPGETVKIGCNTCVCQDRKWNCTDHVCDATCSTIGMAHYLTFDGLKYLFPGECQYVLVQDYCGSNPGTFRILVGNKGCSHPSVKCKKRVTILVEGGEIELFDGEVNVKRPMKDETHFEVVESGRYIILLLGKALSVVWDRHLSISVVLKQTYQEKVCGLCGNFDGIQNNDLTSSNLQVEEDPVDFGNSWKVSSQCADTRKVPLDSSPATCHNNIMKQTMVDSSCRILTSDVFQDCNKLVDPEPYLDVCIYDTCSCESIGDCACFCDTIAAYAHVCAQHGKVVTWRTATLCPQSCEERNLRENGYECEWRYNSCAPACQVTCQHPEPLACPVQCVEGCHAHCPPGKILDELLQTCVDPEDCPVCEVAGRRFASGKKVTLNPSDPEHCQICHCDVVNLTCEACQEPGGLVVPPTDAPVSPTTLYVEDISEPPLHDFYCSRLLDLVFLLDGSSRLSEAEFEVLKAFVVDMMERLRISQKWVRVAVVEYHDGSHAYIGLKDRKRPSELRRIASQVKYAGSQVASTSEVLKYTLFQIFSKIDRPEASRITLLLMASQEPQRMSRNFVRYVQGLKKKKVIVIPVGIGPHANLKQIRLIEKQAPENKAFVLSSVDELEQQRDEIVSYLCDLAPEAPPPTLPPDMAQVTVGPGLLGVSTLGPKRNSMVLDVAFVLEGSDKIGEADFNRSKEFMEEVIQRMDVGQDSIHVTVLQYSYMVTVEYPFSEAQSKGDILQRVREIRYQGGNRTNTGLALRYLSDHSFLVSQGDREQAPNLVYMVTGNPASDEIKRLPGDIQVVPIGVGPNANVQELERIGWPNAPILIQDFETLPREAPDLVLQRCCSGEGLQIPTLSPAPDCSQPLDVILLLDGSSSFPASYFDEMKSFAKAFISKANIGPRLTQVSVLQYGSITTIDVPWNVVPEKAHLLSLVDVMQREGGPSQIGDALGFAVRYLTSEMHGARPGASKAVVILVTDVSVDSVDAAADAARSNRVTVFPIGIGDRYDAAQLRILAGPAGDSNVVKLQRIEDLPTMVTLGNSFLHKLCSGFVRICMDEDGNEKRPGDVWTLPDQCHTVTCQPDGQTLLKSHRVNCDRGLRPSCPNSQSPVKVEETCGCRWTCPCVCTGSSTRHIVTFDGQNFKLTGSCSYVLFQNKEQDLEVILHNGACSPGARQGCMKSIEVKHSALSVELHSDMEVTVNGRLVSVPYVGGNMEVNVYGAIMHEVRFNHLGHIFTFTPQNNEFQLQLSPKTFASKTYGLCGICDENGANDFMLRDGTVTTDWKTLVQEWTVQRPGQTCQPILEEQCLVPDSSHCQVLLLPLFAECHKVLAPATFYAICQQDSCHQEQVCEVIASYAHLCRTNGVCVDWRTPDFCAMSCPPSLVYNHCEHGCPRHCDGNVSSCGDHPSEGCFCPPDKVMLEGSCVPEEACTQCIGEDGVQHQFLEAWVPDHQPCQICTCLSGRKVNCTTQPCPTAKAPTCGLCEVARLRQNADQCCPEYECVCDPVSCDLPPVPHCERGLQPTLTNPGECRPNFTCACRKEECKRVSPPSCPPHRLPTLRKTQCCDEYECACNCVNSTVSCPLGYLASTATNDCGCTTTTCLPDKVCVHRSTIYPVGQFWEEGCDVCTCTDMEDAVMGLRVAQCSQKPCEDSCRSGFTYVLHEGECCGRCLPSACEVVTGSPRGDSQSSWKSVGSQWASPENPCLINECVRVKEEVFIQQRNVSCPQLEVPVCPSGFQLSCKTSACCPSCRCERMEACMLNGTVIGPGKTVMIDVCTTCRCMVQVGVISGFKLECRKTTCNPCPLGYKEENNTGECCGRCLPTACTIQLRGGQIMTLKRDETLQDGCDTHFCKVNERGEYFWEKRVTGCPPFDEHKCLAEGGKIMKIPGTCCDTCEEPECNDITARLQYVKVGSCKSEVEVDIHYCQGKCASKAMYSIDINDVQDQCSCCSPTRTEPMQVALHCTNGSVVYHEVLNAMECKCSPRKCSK
T1 sequence (P07359 17-652): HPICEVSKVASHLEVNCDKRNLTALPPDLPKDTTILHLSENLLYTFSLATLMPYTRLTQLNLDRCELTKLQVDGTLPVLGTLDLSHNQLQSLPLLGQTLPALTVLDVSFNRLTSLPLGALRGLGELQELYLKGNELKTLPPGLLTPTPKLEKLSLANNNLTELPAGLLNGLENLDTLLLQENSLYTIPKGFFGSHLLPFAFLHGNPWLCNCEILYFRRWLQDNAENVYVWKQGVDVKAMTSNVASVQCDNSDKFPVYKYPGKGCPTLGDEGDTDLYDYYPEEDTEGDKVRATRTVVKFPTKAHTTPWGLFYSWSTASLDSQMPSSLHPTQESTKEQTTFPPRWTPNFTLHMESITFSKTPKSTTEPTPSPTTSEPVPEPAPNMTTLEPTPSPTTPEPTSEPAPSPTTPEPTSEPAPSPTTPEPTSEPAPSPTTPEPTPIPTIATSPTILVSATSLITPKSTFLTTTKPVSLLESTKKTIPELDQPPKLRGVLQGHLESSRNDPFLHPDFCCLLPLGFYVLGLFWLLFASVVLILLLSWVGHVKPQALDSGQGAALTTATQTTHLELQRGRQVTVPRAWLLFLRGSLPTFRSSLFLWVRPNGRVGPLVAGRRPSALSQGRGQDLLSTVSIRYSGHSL

Row | Ristocetin-Induced Inhibition of vWF Binding to Gp1b IC50 (vWF Binding to Gp1b) | IC50 (vWF Binding to Gp1b) | % Inhibition of Heparanase Activity (5µg/ml) [1] | Platelet Aggregation IC50 [2] | Ristocetin-Induced Inhibition of vWF Binding to Gp1b (vWF Binding to Gp1b) | Structure (SMILES) | APTT ICDCT (normal pooled plasma)
1 | >100 µg/mL |  |  |  |  | COc1ccc(CCC(=O)O)c(COc2cc(CCC(=O)O)c(COc3cc(CCC(=O)O)c(COc4cc(CCC(=O)O)c(COc5cc(CCC(=O)O)ccc5OC)cc4OC)cc3OC)cc2OC)c1 [Ex12, Step 11, 2-[4-[4-[4-[[5-(2-carboxyethyl)-2-methoxy]phenoxymethyl]-[5-(2-carboxyethyl)-2-methoxy]phenoxymethyl]-[5-(2-carboxyethyl)-2-methoxy]phenoxymethyl]-[5-(2-carboxyethyl)-2-methoxy]phenoxymethyl]-4-methoxyhydrocinnamic acid] | >250 µg/mL
2 |  |  | 20% | >1000 µg/mL |  | COc1cc(C)c(CCC(=O)O)cc1Cc1cc(OC)c(Cc2cc(OC)c(Cc3cc(OC)c(Cc4cc(OC)c(Cc5cc(OC)c(Cc6cc(OC)c(Cc7cc(O)ccc7CCC(=O)O)cc6CCC(=O)O)cc5CCC(=O)O)cc4CCC(=O)O)cc3CCC(=O)O)cc2CCC(=O)O)cc1CCC(=O)O [Ex 5, Step 2, 5-[4-[4-[4-[4-[4-[4-[[2-(2-carboxyethyl)-5-hydroxy]benzyl]-[2-(2-carboxyethyl)-5-methoxy]benzyl]-[2-(2-carboxyethyl)-5-methoxy]benzyl]-[2-(2-carboxyethyl)-5-methoxy]benzyl]-[2-(2-carboxyethyl)-5-methoxy]benzyl]-[2-(2-carboxyethyl)-5-methoxy]benzyl]-[2-(2-carboxyethyl)-5-methoxy]benzyl]-4-methoxy-2-methylhydrocinnamic acid] | 37 µg/mL
3 |  |  |  | >1000 µg/mL | 42% at 100 µg/ml | O=C(O)CCc1cc(Cc2cc(O)c(Cc3cc(O)c(Cc4cc(O)ccc4CCC(=O)O)cc3CCC(=O)O)cc2CCC(=O)O)c(O)cc1CCc1cc(O)c(Cc2cc(O)c(Cc3cc(O)c(Cc4cc(O)ccc4CCC(=O)O)cc3CCC(=O)O)cc2CCC(=O)O)cc1CCC(=O)O [Ex 6, 1,2-bis-[4-[4-[4-[[2-(2-carboxyethyl)-5-hydroxy]benzyl]-[2-(2-carboxyethyl)-5-hydroxy]benzyl]-(2-(2-carboxyethyl)-5-hydroxy]benzyl]-[2-(2-carboxyethyl)-5-hydroxy]phenyl]ethane] | 387 µg/mL
4 |  |  |  |  | 17% at 100 µg/ml | COc1cc(CCc2cc(OC)c(Cc3cc(OC)c(Cc4cc(OC)c(Cc5cc(O)ccc5CCC(=O)O)cc4CCC(=O)O)cc3CCC(=O)O)cc2CCC(=O)O)c(CCC(=O)O)cc1Cc1cc(OC)c(Cc2cc(OC)c(Cc3cc(O)ccc3CCC(=O)O)cc2CCC(=O)O)cc1CCC(=O)O [Ex 7, 1,2-bis-[4-[4-[4-[[2-(2-carboxyethyl)-5-hydroxy]benzyl]-[2-(2-carboxyethyl)-5-methoxy]benzyl]-[2-(2-carboxyethyl)-5-methoxy]benzyl]-[2-(2-carboxyethyl)-5-methoxy]phenyl]ethane] | 500 µg/mL

More lines, now with the values behind:

Row | Structure (SMILES) | Ristocetin-Induced Inhibition of vWF Binding to Gp1b IC50 (vWF Binding to Gp1b) | IC50 (vWF Binding to Gp1b) | % Inhibition of Heparanase Activity (5µg/ml) [1] | Platelet Aggregation IC50 [2] | Ristocetin-Induced Inhibition of vWF Binding to Gp1b (vWF Binding to Gp1b) | APTT ICDCT (normal pooled plasma)
5 | O=C(O)CCc1ccc(O)c(Cc2cc(CCC(=O)O)cc(Cc3cc(CCC(=O)O)cc(Cc4cc(CCC(=O)O)ccc4O)c3O)c2O)c1 [Ex 1, Step 3, bis-[5-(2-carboxyethyl)-3-[5-(2-carboxyethyl)-2-hydroxybenzyl]2-hydroxyphenyl]methane] |  | > 143 µM |  |  |  | >250 µg/mL
6 | COc1cc(Cc2cc(CCC(=O)O)c(C)cc2O)c(CCC(=O)O)cc1Cc1cc(OC)c(Cc2cc(OC)c(Cc3cc(OC)c(Cc4cc(OC)c(Cc5cc(OC)c(Cc6cc(OC)c(Cc7cc(OC)c(Cc8cc(OC)c(Cc9cc(OC)c(Cc%10cc(OC)c(Cc%11cc(OC)c(Cc%12cc(OC)c(Cc%13cc(OC)c(Cc%14cc(O)ccc%14CCC(=O)O)cc%13CCC(=O)O)cc%12CCC(=O)O)cc%11CCC(=O)O)cc%10CCC(=O)O)cc9CCC(=O)O)cc8CCC(=O)O)cc7CCC(=O)O)cc6CCC(=O)O)cc5CCC(=O)O)cc4CCC(=O)O)cc3CCC(=O)O)cc2CCC(=O)O)cc1CCC(=O)O [Ex 8] |  |  | 70% |  |  | 35 µg/mL
7 | COc1cc(CCc2cc(OC)c(Cc3cc(OC)c(Cc4cc(OC)c(Cc5cc(OC)c(Cc6cc(OC)c(Cc7cc(OC)c(Cc8cc(OC)c(Cc9cc(O)ccc9CCC(=O)O)cc8CCC(=O)O)cc7CCC(=O)O)cc6CCC(=O)O)cc5CCC(=O)O)cc4CCC(=O)O)cc3CCC(=O)O)cc2CCC(=O)O)c(CCC(=O)O)cc1Cc1cc(OC)c(Cc2cc(OC)c(Cc3cc(OC)c(Cc4cc(OC)c(Cc5cc(OC)c(Cc6cc(OC)c(Cc7cc(O)ccc7CCC(=O)O)cc6CCC(=O)O)cc5CCC(=O)O)cc4CCC(=O)O)cc3CCC(=O)O)cc2CCC(=O)O)cc1CCC(=O)O [Ex 9, 1,2-bis-[4-[4-[4-[4-[4-[4-[4-[[2-(2-carboxyethyl)-5-hydroxy]benzyl]-[2-(2-carboxyethyl)-5-methoxy]benzyl]-[2-(2-carboxyethyl)-5-methoxy]benzyl]-[2-(2-carboxyethyl)-5-methoxy]benzyl]-[2-(2-carboxyethyl)-5-methoxy]benzyl]-[2-(2-carboxyethyl)-5-methoxy]benzyl]-[2-(2-carboxyethyl)-5-methoxy]benzyl]-[2-(2-carboxyethyl)-5-methoxy]phenyl]ethane] |  |  | 52% | 319 µg/mL |  | 105 µg/mL
8 | COC(=O)CCc1cc(OCc2cc(OC)c(OCc3cc(OC)c(OCc4cc(OC)c(OC(C)=O)cc4CCC(=O)OC)cc3CCC(=O)OC)cc2CCC(=O)OC)c(OC)cc1CO [Ex 10, Step 13] |  |  |  |  |  | >250 µg/mL
